Assay results: patent US20070134744A1, “Epothilone resistant cell lines” (priority 2000, published 2007)

Legend:
EA60 cells = assay: Cell cycle analysis by FACS; assay type: cell-based; settings: 24 hours, 60 nM epothilone A
Experimental: (§1) Cells are fixed by resuspending in cold 70% ethanol, washing again with 5 ml of PBS and resuspending in PI solution ([…] propidium iodide, 38 mM sodium citrate, 20 μg/ml RNAse A). After incubation in PI solution at 37° C. for 30 minutes, cells are analyzed by flow cytometry according to conventional methodology (apparatus and software commercially available from Becton Dickinson Immunocytometry Systems, CA).
(§2) Cell cycle distribution patterns of epothilone A resistant and parental MDA-MB-435 epothilone A sensitive cells are compared by standard FACS analysis. […] Thus, a significant part of the epothilone A resistant cell population appears to overcome the G2/M block that normally occurs in the cell cycle of epothilone A sensitive cells.

MDA-MB-435 cells = assay: Cell cycle analysis by FACS; assay type: cell-based; settings: 24 hours, 20 nM epothilone A
Experimental: as §1, §2

[1] = target: T1, tubulin in 298/D4/40 cells (Homo sapiens, UniProt P07437, T274P); assay: Cell-based tubulin polymerization assay; settings: 2 hours, up to 1000 nM
T1 construct: endogenous in cells; host or cells: 297/C5/0 and 298/D4/40 sublines of KB-31 (intact cells or hypotonic lysates)
Experimental: (§3) Drug-induced changes in the ratios between unpolymerized and polymerized tubulin in intact and lysed cells, respectively, are assessed basically as described (Giannakakou et al, Int. J. Cancer 75: 57-63 (1998)). Briefly, for the assessment of cellular drug effects, 2×10^5 cells are seeded in a volume of 1 ml to maximally 6 wells per 24-well plate. After incubation for 18-24 hrs at 37° C. to allow for cell attachment, test substances are added to the cell culture medium to achieve the desired concentrations, followed by incubation of the cells for 2 hrs at 37° C. Final vehicle concentration is 1%. One plate at a time is then transferred to a dimmed tissue-culture hood and cells are washed twice with 1 ml of room-temperature phosphate-buffered saline lacking Ca^++ and Mg^++ (PBS/O). After careful removal of remaining PBS/O, 100 μl of room-temperature Hypotonic Lysis Buffer A (HLB/A: 20 mM Tris-HCl (pH 6.8), 1 mM Mg2Cl, 2 mM EGTA, 2 mM Pefabloc, 1 mM benzamidine, 10 μg/ml aprotinin, 10 μg/ml leupeptin, 0.5% Nonidet P-40) is added and plates are wrapped in aluminum foil to minimize artifacts due to light-driven tubulin polymerization. Following incubation for exactly 5 min at 37° C., cells are harvested by scraping and transferred to a room-temperature eppendorf tube. Harvested wells are washed once with 100 μl room temperature HLB/A and pooled with the corresponding initial samples. Tubes are vortexed for 5 seconds to aid cell lysis, followed by centrifugation for 10 min at room-temperature in a table-top centrifuge at 12′000×g to separate microtubules (pellet) from unpolymerized tubulin (supernatant). The supernatant is then carefully transferred to a fresh eppendorf tube and stored on ice until further processed. Meanwhile, the pelleted material is resuspended in 200 μl room-temperature Resuspension Buffer (RSB: 10 mM Tris-HCl (pH 7.5), 1.5 mM Mg2Cl, 2 mM EGTA, 1 mM Pefabloc, 1 mM benzamidine, 10 μg/ml aprotinin, 10 μg/ml leupeptin, 0.5% Nonidet P-40). Solubilization of the pellet is aided by placing the eppendorf tube for 30 seconds in a sonicator waterbath. […]

tubulin in KB-31 cells = target: T2, tubulin in KB-31 cells (Homo sapiens, UniProt P07437); assay: Cell-based tubulin polymerization assay; settings: 2 hours, 0-1000 nM
T2 construct: decrease in the unpolymerized pool of tubulin in KB-31 cell lysates; endogenous in cells; host or cells: KB-31 human epidermoid carcinoma cells (intact cells or hypotonic lysates)
Experimental: as §3

[2] = target: T3, tubulin in 297/C5/0 cell lysates (Homo sapiens, UniProt P07437, T274P); assay: Cell-free tubulin polymerization assay; assay type: biochemical; settings: 297/C5/0 lysates, 5 min 37° C., 0-100 μM, vs KB-31
T3 construct: endogenous in cells; host or cells: 297/C5/0 and 298/D4/40 sublines of KB-31 (intact cells or hypotonic lysates)
Experimental: (§4) For the assessment of drug effects on the ratio between unpolymerized and polymerized tubulin in a cell-free system, cells are lysed at the time of drug addition and processed as follows. Cells are seeded and incubated for 18-24 hrs as described above. One plate at a time is then transferred to a dimmed tissue-culture hood and cells are washed twice with 1 ml of room temperature PBS/O. After careful removal of remaining PBS/O, 200 μl of room-temperature HLB/A containing test substances at the desired concentration is added to the cells. Final vehicle concentration is 1%. The plates are wrapped in aluminum foil and incubated for 5 min at 37° C. Lysates are then transferred to eppendorf tubes, vortexed for 5 seconds, followed by centrifugation for 30 minutes at room-temperature in a table-top centrifuge at 12′000×g. Further processing of the samples is performed as described above.
(§5) However, it was not clear from this experiment whether the decrease in epothilone A-mediated tubulin polymerization is due to decreased drug uptake or a genuine defect in tubulin functionality. To address this question, cells are lysed before incubation with epothilone A. Specifically, KB-31, 297/C5/0 and 298/D4/40 cells (2×10^5) are separately seeded in 6-well plates and allowed to adhere for 24 hrs. Cells are then lysed in hypotonic buffer containing 0, 1, 10 or 100 μM epothilone A. Vehicle (DMSO) concentration was 1%. Following incubation for 5 min at 37° C., samples are centrifuged to separate soluble from polymerized tubulin and the levels of unpolymerized tubulin is assessed by Western blotting as described above.

[3] = target: T4, tubulin in 298/D4/40 cell lysates (Homo sapiens, UniProt P07437, T274P); assay: Cell-free tubulin polymerization assay; assay type: biochemical; settings: 298/D4/40 lysates, 5 min 37° C., 0-100 μM
T4 construct: endogenous in cells; host or cells: 297/C5/0 and 298/D4/40 sublines of KB-31 (intact cells or hypotonic lysates)
Experimental: as §4, §5

[4] = target: T5, tubulin in KB-31 cell lysates (Homo sapiens, UniProt P07437); assay: Cell-free tubulin polymerization assay; assay type: biochemical; settings: KB-31 lysates, 5 min 37° C., 0-100 μM
T5 construct: decrease in the unpolymerized pool of tubulin in KB-31 cell lysates; endogenous in cells; host or cells: KB-31 human epidermoid carcinoma cells (intact cells or hypotonic lysates)
Experimental: as §4, §5

T4 sequence (P07437 whole entry T274P): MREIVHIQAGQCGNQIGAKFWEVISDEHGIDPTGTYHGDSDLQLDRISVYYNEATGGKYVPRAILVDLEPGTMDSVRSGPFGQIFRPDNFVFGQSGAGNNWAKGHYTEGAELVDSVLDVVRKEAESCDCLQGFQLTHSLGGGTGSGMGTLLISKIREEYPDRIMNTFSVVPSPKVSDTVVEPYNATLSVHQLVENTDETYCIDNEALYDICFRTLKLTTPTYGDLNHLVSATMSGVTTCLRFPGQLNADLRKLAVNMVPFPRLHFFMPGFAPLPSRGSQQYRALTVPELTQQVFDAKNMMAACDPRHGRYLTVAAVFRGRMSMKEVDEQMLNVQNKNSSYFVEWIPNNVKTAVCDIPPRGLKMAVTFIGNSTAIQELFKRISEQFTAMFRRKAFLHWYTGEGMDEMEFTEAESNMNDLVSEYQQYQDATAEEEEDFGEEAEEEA
T4 sequence (P68363 whole entry partner): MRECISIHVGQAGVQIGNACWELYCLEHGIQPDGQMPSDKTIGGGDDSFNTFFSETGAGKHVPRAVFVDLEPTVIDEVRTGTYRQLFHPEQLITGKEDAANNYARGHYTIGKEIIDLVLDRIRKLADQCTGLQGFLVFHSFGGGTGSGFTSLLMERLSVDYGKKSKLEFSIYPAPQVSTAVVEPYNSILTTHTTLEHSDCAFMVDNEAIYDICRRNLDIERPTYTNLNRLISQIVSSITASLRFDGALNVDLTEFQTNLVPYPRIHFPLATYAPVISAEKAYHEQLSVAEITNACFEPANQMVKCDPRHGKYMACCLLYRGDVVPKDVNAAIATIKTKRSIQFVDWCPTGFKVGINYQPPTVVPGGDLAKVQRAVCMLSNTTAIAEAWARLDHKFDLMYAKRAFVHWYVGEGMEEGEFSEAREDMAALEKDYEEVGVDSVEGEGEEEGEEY
T3 sequence (P07437 whole entry T274P): as the sequence (P07437 whole entry T274P) above
T3 sequence (P68363 whole entry partner): as the sequence (P68363 whole entry partner) above
T1 sequence (P07437 whole entry T274P): as the sequence (P07437 whole entry T274P) above
T1 sequence (P68363 whole entry partner): as the sequence (P68363 whole entry partner) above
T2 sequence (P68363 whole entry): as the sequence (P68363 whole entry partner) above
T2 sequence (P07437 whole entry): as the sequence (P07437 whole entry T274P) above, with P274T counted along it
T5 sequence (P68363 whole entry): as the sequence (P68363 whole entry partner) above
T5 sequence (P07437 whole entry): as the sequence (P07437 whole entry T274P) above, with P274T counted along it

Structure (SMILES): C/C(=C\c1csc(C)n1)[C@@H]1C[C@@H]2O[C@@H]2CCC[C@H](C)[C@H](O)[C@@H](C)C(=O)C(C)(C)[C@@H](O)CC(=O)O1 [Epothilone A, epothilone A]
- cell cycle distribution (EA60 cells): overcomes the G2/M phase block
- cell cycle distribution (MDA-MB-435 cells): blocked at the G2/M phase
- epothilone A-mediated tubulin polymerization [1]: completely refractory
- unpolymerized tubulin in intact cells (tubulin in KB-31 cells): dose-dependent decrease in the unpolymerized pool of tubulin
- dose-response curve for unpolymerized tubulin in cell lysates [2]: shifted to higher concentrations
- changes in unpolymerized tubulin in cell lysates [3]: completely refractory
- unpolymerized tubulin in cell lysates [4]: dose-dependent decrease in the unpolymerized pool of tubulin
